Measurements published in article PMC3419577 (The Journal of neuroscience : the official journal of the …, 2012).

Tested on: cells in posterior cortex (V1), fresh frozen sections
Assay: Binding of AP-fusion proteins on fresh-frozen brain sections
Set-up: species or system mouse
Conditions: AP staining, competitor with AP-NtHD

Full-length Otx2: non-tagged, full-length Otx2 used as competitor
competition of AP-NtHD binding: disrupts AP-NtHD cortical binding
